Results taken from US20230309833A1, “METHODS AND MATERIALS FOR USING [18F]-F-ARAG IN CARDIAC IMAGING” (CELLSIGHT TECHNOLOGIES INC., priority 2020, published 2023).

Legend:
[1] = tested on: CCRF-CEM cells; assay: Competition of cold 2F-AraG with 8-[3H]-AraG uptake, CCRF-CEM; assay type: cell-based; settings: increasing 2F-AraG 1-100 µM, 60 or 120 minutes
Experimental: FIG. 2.3A illustrates a graph of 5 × 10^5CCRF-CEM cells were incubated, in triplicate, with 1uCi 8H^3-AraG (1mCi/ml) and increasing amounts of cold 2F-AraG or DMSO for either 60 or 120 minutes. Percent of control uptake was calculated as: measured cpm of sample/ cpm accumulated 1uCi 8[H^3]-AraG control x 100.
Previously we successfully synthesized a novel ^18F derivative of 2-deoxyguanosine analog, 9-β-D-arabinofuranosylguanine (“^18F-AraG” or “[^18F]F—AraG)”, to use as a molecular probe (FIG. 2.1). [^18F]AraG cell uptake was evaluated in leukemia cell line, CCRF-CEM, and was compared with [^3H]AraG cell uptake. […] To determine whether cold derivative 2F-AraG competes with the uptake of 8-[^3H]—AraG, we studied the [^3H]-Arag uptakes by CCRF-CEM, MOLT-4 (Leukemia cell line) and Raji (human Burkitt’s lymphoma cell line) and competition with cold 2F-AraG (FIGS. 2.3A and 2.3B). […] Competition assays indicate that cold derivative 2F-Arag competes with the uptake of the 8-[^3H]—AraG, indicating similar uptake pathways.

[2] = some patients; cited from earlier work
[3] = tested on: heart; settings: cited from earlier work
[4] = molecular target: T1, deoxyguanosine kinase (dGK) (Homo sapiens, UniProt Q16854); assay: Enzyme kinetics of dGK; assay type: biochemical; settings: dGuo positive control, unit not given
T1 sequence (Q16854 40-277): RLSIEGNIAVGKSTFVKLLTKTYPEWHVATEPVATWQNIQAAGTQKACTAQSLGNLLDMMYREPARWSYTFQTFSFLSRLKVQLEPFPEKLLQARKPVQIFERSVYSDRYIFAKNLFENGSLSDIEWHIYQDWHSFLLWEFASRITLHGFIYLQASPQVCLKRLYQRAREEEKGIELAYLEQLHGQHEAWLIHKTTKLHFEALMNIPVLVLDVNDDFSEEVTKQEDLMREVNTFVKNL
Text: […]. Lines indicate best fit. […]. Lines indicate best fit. […].

[5] = tested on: colon cancer model; assay type: in vivo, mice; settings: tumors and tumor draining lymph nodes
Text: FIGS. 13A-13D show data from embodiments of the invention. FIG. 13A. […] FIG. 13B. […] White circles indicate tumor draining lymph nodes, yellow arrows point to tumors. FIG. 13C.
The discovery of the immune response that results from chemotherapy-induced tumor cell death, termed immunogenic cell death (32), has sparked interest in harnessing chemotherapy’s immunomodulatory effects for possible synergistic combinations with immunotherapeutics (33,34).

[6] = substrate: Nc1nc2c(ncn2[C@H]2C[C@H](O)[C@@H](CO)O2)c(=O)[nH]1; assay: purified protein, by the assay type; settings: other: dGuo positive control, unit inferred

For `Nc1nc2c(ncn2[C@@H]2O[C@H](CO)[C@@H](O)[C@@H]2F)c(=O)[nH]1` [2F-AraG, 2′-Deoxy-2′-fluoro-9-β-D-arabinofuranosylguanine], the “Effect on [3H]-AraG uptake” value [1] was “decrease”.

In the case of `Nc1nc2c(ncn2[C@@H]2O[C@H](CO)[C@@H](O)[C@@H]2O)c(=O)[nH]1` [AraG, 9-(β—D—Arabinofuranosyl)guanine], the “Therapeutic serum level at which neurotoxic side effects are reported” value [2] is given as ~ 150 µM.

In the case of `CC(C)Oc1cccc(C=NCC(C)(C)CNCCNCC(C)(C)CN=Cc2cccc(OC(C)C)c2[O-])c1[O-].[68Ga+3].[I-]` [^68Ga-Galmydar], the “Cardiac uptake of tracer in doxorubicin treated animals” value ([3]; preclinical studies) is listed as “reduction in cardiac uptake”.

For `Nc1nc2c(ncn2[C@H]2C[C@H](O)[C@@H](CO)O2)c(=O)[nH]1` [dGuo, 2′-deoxyguanosine], the “Vmax of dGK” value [4] was 123.2.

For `COc1cccc2c1C(=O)c1c(O)c3c(c(O)c1C2=O)C[C@@](O)(C(=O)CO)C[C@@H]3O[C@H]1C[C@H](N)[C@H](O)[C@H](C)O1` [doxorubicin], the “Effect of treatment on 18FDG uptake in the heart” value ([3]; in vivo) is listed as “increase”.

With Paclitaxel/carboplatin the “Change in [18F]F-AraG signal intensity after treatment” value [5] was “did not lead to appreciable changes”.

B1: deoxyguanosine kinase (dGK) (Homo sapiens) (protein)
chain: RLSIEGNIAVGKSTFVKLLTKTYPEWHVATEPVATWQNIQAAGTQKACTAQSLGNLLDMMYREPARWSYTFQTFSFLSRLKVQLEPFPEKLLQARKPVQIFERSVYSDRYIFAKNLFENGSLSDIEWHIYQDWHSFLLWEFASRITLHGFIYLQASPQVCLKRLYQRAREEEKGIELAYLEQLHGQHEAWLIHKTTKLHFEALMNIPVLVLDVNDDFSEEVTKQEDLMREVNTFVKNL
B1 showed a Km [6] of 5.08 µM.
